In the CheMixHub drug solubility set:

Test: xn = mol fraction of the nth substance listed, in the solute-free solvent

O=[N+]([O-])c1cc[nH]n1 + CCCO + O
solubility (g/100 g solution)
Details	283.15 K	288.15 K	293.15 K	298.15 K	303.15 K	308.15 K	313.15 K	318.15 K	323.15 K
x2 = 0.03225	0.274	0.349	0.477	0.616	0.783	1.04	1.33	1.86	2.35
x2 = 0.06974	0.307	0.377	0.489	–	0.772	1.01	1.29	1.68	2.18
x2 = 0.1139	0.626	0.769	0.945	1.16	1.45	1.78	2.31	2.95	3.78
x2 = 0.1666	0.964	1.19	1.43	1.76	2.13	2.64	3.29	4.2	5.32
x2 = 0.2307	1.35	1.63	1.97	2.36	2.87	3.48	4.23	5.37	6.75
x2 = 0.3103	1.73	2.03	2.41	2.87	3.44	4.09	4.96	6.34	7.73
x2 = 0.4117	2.08	2.44	2.82	3.32	3.87	4.69	5.64	6.61	8.31
x2 = 0.5454	2.49	2.85	3.25	3.76	4.35	5.08	6.07	7.31	8.56
x2 = 0.7297	2.69	3.11	3.53	4	4.54	5.23	6.03	7.19	8.45

Cc1ccc(Nc2nccc(N(C)c3ccc4c(C)n(C)nc4c3)n2)cc1S(N)(=O)=O + CCO + CC#N
solubility (g/100 g solution)
Details	288.15 K	293.15 K	298.15 K	303.15 K	308.15 K	313.15 K	318.15 K	323.15 K	328.15 K
x2 = 0.1822	0.0124	0.029	0.0444	0.063	0.0838	0.104	0.125	0.149	0.177
x2 = 0.3727	0.026	0.0514	0.0739	0.101	0.129	0.157	0.187	0.22	0.258
x2 = 0.572	0.0528	0.0704	0.0887	0.11	0.133	0.16	0.189	0.221	0.256
x2 = 0.7809	0.0195	0.035	0.0514	0.0677	0.086	0.104	0.123	0.145	0.17

CC1(C)SC2C(NC(=O)C(NC(=O)N3CCNC3=O)c3ccccc3)C(=O)N2C1C(=O)O (centres undefined) + CCO + CC(C)O
solubility (g/100 g solution)
Details	278.15 K	283.15 K	288.15 K	293.15 K	298.15 K	303.15 K	308.15 K	313.15 K	318.15 K	323.15 K
x2 = 0.101	0.0833	0.0951	0.122	0.14	0.179	0.215	0.264	0.329	0.405	0.525
x2 = 0.2	0.0893	0.101	0.129	0.153	0.191	0.238	0.294	0.368	0.449	0.59
x2 = 0.301	0.119	0.135	0.164	0.208	0.248	0.287	0.369	0.426	0.528	0.687
x2 = 0.401	0.13	0.155	0.19	0.238	0.281	0.339	0.415	0.511	0.63	0.773
x2 = 0.5	0.154	0.182	0.223	0.279	0.345	0.399	0.484	0.636	0.78	0.991
x2 = 0.602	0.197	0.227	0.275	0.345	0.43	0.537	0.646	0.789	0.974	1.25
x2 = 0.703	0.268	0.302	0.368	0.464	0.539	0.677	0.857	1.05	1.29	1.61
x2 = 0.8	0.37	0.45	0.53	0.623	0.718	0.882	1.15	1.38	1.67	2.05
x2 = 0.9	0.54	0.618	0.748	0.927	1.11	1.35	1.69	2.01	2.39	2.92

CC(=O)Nc1ccc(OC(=O)c2ccccc2OC(C)=O)cc1 + CCO + O
solubility (g/100 g solution)
Details	278.15 K	283.15 K	288.15 K	293.15 K	298.15 K	303.15 K	308.15 K	313.15 K	318.15 K
x2 = 0.04165	0.00299	0.00439	0.00634	0.00913	0.0133	0.0185	0.0258	0.0351	0.0474
x2 = 0.08908	0.00839	0.0122	0.0171	0.0242	0.0339	0.0464	0.0629	0.0839	0.112
x2 = 0.1436	0.0202	0.0284	0.0401	0.0539	0.0744	0.0995	0.133	0.175	0.232
x2 = 0.2068	0.037	0.0513	0.0699	0.0951	0.127	0.166	0.221	0.283	0.366
x2 = 0.2812	0.0604	0.0826	0.111	0.146	0.19	0.252	0.322	0.409	0.514
x2 = 0.3698	0.082	0.109	0.148	0.197	0.255	0.33	0.424	0.542	0.69
x2 = 0.4772	0.108	0.144	0.193	0.254	0.327	0.418	0.536	0.684	0.863
x2 = 0.6101	0.134	0.178	0.236	0.306	0.396	0.513	0.661	0.829	1.04
x2 = 0.7788	0.157	0.206	0.273	0.356	0.458	0.586	0.741	0.936	1.18

COC(=O)C1=C(C)NC(C)=C(C(=O)OCC(C)C)C1c1ccccc1[N+](=O)[O-] (centres undefined) + CCO + O
solubility (g/100 g solution)
Details	278.15 K	283.15 K	288.15 K	293.15 K	298.15 K	303.15 K	308.15 K	313.15 K	318.15 K
x2 = 0.08908	0.379	0.503	0.648	0.817	0.987	1.2	1.42	1.68	1.99
x2 = 0.2068	1.23	1.53	1.87	2.25	2.73	3.28	3.94	4.74	5.64
x2 = 0.3698	1.72	2.14	2.63	3.16	3.79	4.51	5.31	6.22	7.38
x2 = 0.6101	2.18	2.75	3.38	4.12	5	6	7.01	8.24	9.61

CS(=O)(=O)c1ccc(C(O)C(CF)NC(=O)C(Cl)Cl)cc1 (centres undefined) + CCO + O
solubility (g/100 g solution)
Details	278.15 K	283.15 K	288.15 K	293.15 K	298.15 K	303.15 K	308.15 K	313.15 K	318.15 K
x2 = 0.04165	0.113	0.15	0.202	0.267	0.34	0.453	0.569	0.728	0.926
x2 = 0.08908	0.225	0.295	0.39	0.507	0.655	0.841	1.06	1.33	1.64
x2 = 0.1436	0.376	0.498	0.639	0.817	1.03	1.29	1.6	1.99	2.41
x2 = 0.2068	0.536	0.699	0.887	1.13	1.42	1.76	2.15	2.65	3.18
x2 = 0.2812	0.663	0.857	1.08	1.38	1.72	2.13	2.59	3.18	3.85
x2 = 0.3698	0.77	0.998	1.27	1.6	2.01	2.48	3.02	3.69	4.43
x2 = 0.4772	0.869	1.11	1.43	1.79	2.22	2.75	3.35	4.05	4.88
x2 = 0.6101	0.959	1.22	1.55	1.94	2.42	2.98	3.59	4.37	5.21
x2 = 0.7788	1.01	1.3	1.62	2.05	2.53	3.08	3.75	4.55	5.42

O=C(CC(=O)c1ccccc1)c1ccccc1 + CCO + O
solubility (g/100 g solution)
Details	278.15 K	283.15 K	288.15 K	293.15 K	298.15 K	303.15 K	308.15 K	313.15 K	318.15 K
x2 = 0.2	0.0116	0.0406	0.0595	0.069	0.0786	0.0881	0.0946	0.177	0.129
x2 = 0.4	0.2	0.505	0.754	0.88	1.09	1.28	1.97	2.5	2.96
x2 = 0.6	0.577	0.706	0.904	1.13	1.47	2	2.12	2.61	3.89
x2 = 0.8	1.25	2.11	1.75	2.39	3.08	3.46	4.26	6.03	8.9

O=c1ccc2ccccc2o1 + CCO + O
solubility (g/100 g solution)
Details	278.15 K	283.15 K	288.15 K	293.15 K	298.15 K	303.15 K	308.15 K	313.15 K	318.15 K
x2 = 0.1429	0.201	0.363	0.646	1.12	1.9	3.1	4.94	7.56	12.1
x2 = 0.2857	0.809	1.49	2.82	4.84	8.59	14.1	23.6	36.2	52.4
x2 = 0.4286	2.35	4.02	6.77	10.7	17.5	25.7	37.2	51.5	65.7
x2 = 0.5714	3.44	5.45	9.19	13.8	21.1	30.1	41.7	56	70
x2 = 0.7143	3.65	5.85	9.47	14.4	21	30.5	40.9	54.9	68.7
x2 = 0.8571	3.18	5.14	8.31	12.7	19.3	28.4	38.2	51.8	66.4
